Test results reported in PubChem BioAssay AID1963434 (Molecular Pharmacology Branch, DTP, NCI, 2024).
Where “and” joins values, the source holds several entries; their conditions need not be identical. Equal values may be shown once. Each block holds one compound with its values, some of them ahead of it.

Tested on: 755483-174-R-J1-PDC complex spheroid growth, percent test/control
Experiment: Anticancer human tumor 755483-174-R-J1-PDC patient-derived rhabdomyosarcoma cell line growth inhibition [Asc]
Conditions: for viability, T/C: stronger effect = lower value
Summary of the method: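 Complex solid-tumor spheroids incorporating human endothelial and mesenchymal stem cells received single agents or combinations over half-log dilution ranges anchored to clinical Cmax.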

[1] = curve of first compound, second compound 0.01 µM
[2] = curve of first compound, second compound 0.0316 µM
[3] = curve of first compound, second compound 0.1 µM
[4] = curve of first compound, second compound 0.316 µM
[5] = curve of first compound, second compound 1 µM
[6] = second compound 0.01 µM, first compound 0.00949 µM
[7] = second compound 0.01 µM, first compound 0.03 µM
[8] = second compound 0.01 µM, first compound 0.0949 µM
[9] = second compound 0.01 µM, first compound 0.3 µM
[10] = second compound 0.0316 µM, first compound 0.00949 µM
[11] = second compound 0.0316 µM, first compound 0.03 µM
[12] = second compound 0.0316 µM, first compound 0.0949 µM
[13] = second compound 0.0316 µM, first compound 0.3 µM
[14] = second compound 0.1 µM, first compound 0.00949 µM
[15] = second compound 0.1 µM, first compound 0.03 µM
[16] = second compound 0.1 µM, first compound 0.0949 µM
[17] = second compound 0.1 µM, first compound 0.3 µM
[18] = second compound 0.316 µM, first compound 0.00949 µM
[19] = second compound 0.316 µM, first compound 0.03 µM
[20] = second compound 0.316 µM, first compound 0.0949 µM
[21] = second compound 0.316 µM, first compound 0.3 µM
[22] = second compound 1 µM, first compound 0.00949 µM
[23] = second compound 1 µM, first compound 0.03 µM
[24] = second compound 1 µM, first compound 0.0949 µM
[25] = second compound 1 µM, first compound 0.3 µM
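Further: spheroids exposed to compounds for seven days before readout.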

Compound: CCN1C(C(=O)NC23CCC(C(=O)O)(CC2)CC3)C(c2cccc(Cl)c2F)C2(C(=O)Nc3cc(Cl)ccc32)C12CCCCC2 (stereo not given) + CNC(C)C(=O)NC1CN(S(=O)(=O)c2cccc(S(=O)(=O)N3CCC4CCC(C(=O)NC(c5ccccc5)c5ccccc5)N4C(=O)C(NC(=O)C(C)NC)C3)c2)CCC2CCC(C(=O)NC(c3ccccc3)c3ccccc3)N2C1=O
- IC50 [1]: 148 nM
- IC50 [2]: < 9.49 nM
- IC50 [3]: < 9.49 nM
- IC50 [4]: < 9.49 nM
- IC50 [5]: < 9.49 nM
- viability, T/C [6]: 56.2%
- viability, T/C [7]: 73.9%
- viability, T/C [8]: 55%
- viability, T/C [9]: 39.3%
- viability, T/C (second compound 0.01 µM, first compound 0.949 µM): 48.2%
- viability, T/C (second compound 0.01 µM, first compound 3 µM): 38.6%
- viability, T/C [10]: 38.6%
- viability, T/C [11]: 45.8%
- viability, T/C [12]: 50%
- viability, T/C [13]: 49.2%
- viability, T/C (second compound 0.0316 µM, first compound 0.949 µM): 44.2%
- viability, T/C (second compound 0.0316 µM, first compound 3 µM): 28.9%
- viability, T/C [14]: 27.9%
- viability, T/C [15]: 23.6%
- viability, T/C [16]: 39.4%
- viability, T/C [17]: 28.9%
- viability, T/C (second compound 0.1 µM, first compound 0.949 µM): 32.6%
- viability, T/C (second compound 0.1 µM, first compound 3 µM): 24.4%
- viability, T/C [18]: 19.9%
- viability, T/C [19]: 26.2%
- viability, T/C [20]: 40%
- viability, T/C [21]: 37.9%
- viability, T/C (second compound 0.316 µM, first compound 0.949 µM): 23.5%
- viability, T/C (second compound 0.316 µM, first compound 3 µM): 27%
- viability, T/C [22]: 23.5%
- viability, T/C [23]: 23.1%
- viability, T/C [24]: 18.1%
- viability, T/C [25]: 23.1%
- viability, T/C (second compound 1 µM, first compound 0.949 µM): 21.5%
- viability, T/C (second compound 1 µM, first compound 3 µM): 34.4%

Compound: CNC(C)C(=O)NC1CN(S(=O)(=O)c2cccc(S(=O)(=O)N3CCC4CCC(C(=O)NC(c5ccccc5)c5ccccc5)N4C(=O)C(NC(=O)C(C)NC)C3)c2)CCC2CCC(C(=O)NC(c3ccccc3)c3ccccc3)N2C1=O (stereo not given)
- viability, T/C (compound 0.00316 µM): 48.1% and 88.5%
- viability, T/C (compound 0.1 µM): 37.5% [middle of 15 runs]
- IC50 (curve of compound): < 3.16 nM and 23 nM

More lines, main results first:

- IC50 [3]: > 1000 nM
- IC50 [4]: < 3.16 nM
- IC50 [5]: < 3.16 nM
- IC50 (curve of first compound, second compound 3.16 µM): < 3.16 nM
- IC50 (curve of first compound, second compound 10 µM): < 3.16 nM
Compound: CCN1CCN(Cc2ccc(Nc3ncc(F)c(-c4cc(F)c5nc(C)n(C(C)C)c5c4)n3)nc2)CC1 + Cc1c(S(C)(=O)=O)c(-c2cc(F)cc(N3CCN(c4ccc(NS(=O)(=O)c5ccc(NC(CCN6CCC(C(=O)OCCCP(=O)(O)O)CC6)CSc6ccccc6)c(S(=O)(=O)C(F)(F)F)c5)cc4)CC3)c2)c(-c2ccc(Cl)cc2)n1C(C)C
- viability, T/C (second compound 0.1 µM, first compound 0.00316 µM): 43%
- viability, T/C (second compound 0.1 µM, first compound 0.01 µM): 62.1%
- viability, T/C (second compound 0.1 µM, first compound 0.0316 µM): 59.5%
- viability, T/C (second compound 0.1 µM, first compound 0.1 µM): 68.5%
- viability, T/C (second compound 0.1 µM, first compound 0.316 µM): 103%
- viability, T/C (second compound 0.1 µM, first compound 1 µM): 104%
- viability, T/C (second compound 0.316 µM, first compound 0.00316 µM): 41%
- viability, T/C (second compound 0.316 µM, first compound 0.01 µM): 48%
- viability, T/C (second compound 0.316 µM, first compound 0.0316 µM): 57.9%
- viability, T/C (second compound 0.316 µM, first compound 0.1 µM): 59.3%
- viability, T/C (second compound 0.316 µM, first compound 0.316 µM): 69%
- viability, T/C (second compound 0.316 µM, first compound 1 µM): 81.7%
- viability, T/C (second compound 1 µM, first compound 0.00316 µM): 33.3%
- viability, T/C (second compound 1 µM, first compound 0.01 µM): 45.3%
- viability, T/C (second compound 1 µM, first compound 0.0316 µM): 37.3%
- viability, T/C (second compound 1 µM, first compound 0.1 µM): 50.2%
- viability, T/C (second compound 1 µM, first compound 0.316 µM): 49.5%
- viability, T/C (second compound 1 µM, first compound 1 µM): 49.7%
- viability, T/C (second compound 3.16 µM, first compound 0.00316 µM): 31.3%
- viability, T/C (second compound 3.16 µM, first compound 0.01 µM): 66%
- viability, T/C (second compound 3.16 µM, first compound 0.0316 µM): 36.6%
- viability, T/C (second compound 3.16 µM, first compound 0.1 µM): 45.4%
- viability, T/C (second compound 3.16 µM, first compound 0.316 µM): 40.9%
- viability, T/C (second compound 3.16 µM, first compound 1 µM): 58.5%
- viability, T/C (second compound 10 µM, first compound 0.00316 µM): 52.8%
- viability, T/C (second compound 10 µM, first compound 0.01 µM): 41.9%
- viability, T/C (second compound 10 µM, first compound 0.0316 µM): 55%
- viability, T/C (second compound 10 µM, first compound 0.1 µM): 54.4%
- viability, T/C (second compound 10 µM, first compound 0.316 µM): 66.9%
- viability, T/C (second compound 10 µM, first compound 1 µM): 70.9%

- IC50 [1]: 2.6 nM
- IC50 [2]: 1.67 nM
- IC50 [3]: < 0.949 nM
- IC50 [4]: < 0.949 nM
- IC50 [5]: < 0.949 nM
Compound: NC(=O)C(=Cn1cnc(-c2cc(C(F)(F)F)cc(C(F)(F)F)c2)n1)c1cncnc1 + CNC(C)C(=O)NC1CN(S(=O)(=O)c2cccc(S(=O)(=O)N3CCC4CCC(C(=O)NC(c5ccccc5)c5ccccc5)N4C(=O)C(NC(=O)C(C)NC)C3)c2)CCC2CCC(C(=O)NC(c3ccccc3)c3ccccc3)N2C1=O
- viability, T/C (second compound 0.01 µM, first compound 0.000949 µM): 73.8%
- viability, T/C (second compound 0.01 µM, first compound 0.003 µM): 46.7%
- viability, T/C [6]: 15.2%
- viability, T/C [7]: 5.78%
- viability, T/C [8]: 4.79%
- viability, T/C [9]: 3.74%
- viability, T/C (second compound 0.0316 µM, first compound 0.000949 µM): 63.4%
- viability, T/C (second compound 0.0316 µM, first compound 0.003 µM): 36.2%
- viability, T/C [10]: 13.5%
- viability, T/C [11]: 6.2%
- viability, T/C [12]: 6.42%
- viability, T/C [13]: 22%
- viability, T/C (second compound 0.1 µM, first compound 0.000949 µM): 41.2%
- viability, T/C (second compound 0.1 µM, first compound 0.003 µM): 35.9%
- viability, T/C [14]: 7.59%
- viability, T/C [15]: 6.43%
- viability, T/C [16]: 4.59%
- viability, T/C [17]: 3.8%
- viability, T/C (second compound 0.316 µM, first compound 0.000949 µM): 26.7%
- viability, T/C (second compound 0.316 µM, first compound 0.003 µM): 21%
- viability, T/C [18]: 22%
- viability, T/C [19]: 4.35%
- viability, T/C [20]: 26.3%
- viability, T/C [21]: 2.93%
- viability, T/C (second compound 1 µM, first compound 0.000949 µM): 28.7%
- viability, T/C (second compound 1 µM, first compound 0.003 µM): 17.9%
- viability, T/C [22]: 22.5%
- viability, T/C [23]: 2.28%
- viability, T/C [24]: 3.49%
- viability, T/C [25]: 1.7%

- IC50 (curve of compound): 6770 nM and 6630 nM and > 10000 nM
Compound: C#Cc1c(F)ccc2cc(O)cc(-c3ncc4c(N5CC6CCC(C5)N6)nc(OCC56CCCN5CC(F)C6)nc4c3F)c12 (stereo not given)
- viability, T/C (compound 0.0316 µM): 97.7% and 125% and 101%
- viability, T/C (compound 0.1 µM): 114% and 91.6% and 119%
- viability, T/C (compound 0.316 µM): 92.6% and 113% and 90.3%
- viability, T/C (compound 1 µM): 117% and 100% and 127%
- viability, T/C (compound 3.16 µM): 85.7% and 76.6% and 92.3%
- viability, T/C (compound 10 µM): 31.7% and 34.9% and 58.8%
